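A five-concentration, 48-hour dose response in 96-well plates underlies each endpoint, interpolated linearly between surrounding concentrations. Abbreviation: GI50, concentration required for 50% inhibition of growth. TGI marks complete inhibition of growth.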
Legend:
Assay in all cases: NCI tumour cell line growth inhibition, 48 h
SNB-75 CNS = system: SNB-75 CNS
SW-620 colon = system: SW-620 colon
RPMI-8226 leukemia = system: RPMI-8226 leukemia
NCI-H226 lung = system: NCI-H226 lung
CAKI-1 renal = system: CAKI-1 renal
M14 melanoma = system: M14 melanoma
A498 renal = system: A498 renal
SF-268 CNS = system: SF-268 CNS
PC-3 prostate = system: PC-3 prostate
BT-549 breast = system: BT-549 breast

Cc1cc2c(=O)cc(-c3ccc(C(=O)O)cc3)oc2c(C(=O)O)c1C
TGI (SNB-75 CNS): > 100 µM | TGI (SW-620 colon): > 100 µM | TGI (RPMI-8226 leukemia): > 100 µM | TGI (NCI-H226 lung): > 100 µM | TGI (CAKI-1 renal): > 100 µM | TGI (M14 melanoma): > 100 µM

CCOC(=O)c1c2c(n3cccc(F)c13)C(=O)c1ncccc1C2=O
GI50 (SNB-75 CNS): 1.72 µM | TGI (SNB-75 CNS): 64.9 µM | GI50 (SW-620 colon): 0.151 µM | TGI (SW-620 colon): 11.3 µM | TGI (A498 renal): 21.7 µM | GI50 (SF-268 CNS): 0.0963 µM | TGI (SF-268 CNS): 28.2 µM | GI50 (RPMI-8226 leukemia): 1.91 µM | TGI (RPMI-8226 leukemia): 37.3 µM | GI50 (NCI-H226 lung): 0.51 µM | TGI (NCI-H226 lung): 5.11 µM | GI50 (PC-3 prostate): 0.449 µM | TGI (PC-3 prostate): 7.63 µM | GI50 (CAKI-1 renal): 0.0562 µM | TGI (CAKI-1 renal): 21.8 µM | GI50 (M14 melanoma): 0.049 µM | TGI (M14 melanoma): 1.29 µM

CC1=C(C(=O)Nc2ccc(Cl)c(Cl)c2)C(c2cccc(O)c2)NC(=S)N1 (stereo not given)
GI50 (SNB-75 CNS): 11.8 µM | TGI (SNB-75 CNS): 47.8 µM | GI50 (SW-620 colon): 12.5 µM | TGI (SW-620 colon): 33.2 µM | GI50 (SF-268 CNS): 8.35 µM | TGI (SF-268 CNS): 17 µM | GI50 (RPMI-8226 leukemia): 10.1 µM | TGI (RPMI-8226 leukemia): 38.1 µM | GI50 (NCI-H226 lung): 12 µM | TGI (NCI-H226 lung): 30.8 µM | GI50 (PC-3 prostate): 9.54 µM | TGI (PC-3 prostate): 31.4 µM | GI50 (BT-549 breast): 7.97 µM | TGI (BT-549 breast): 19.3 µM | GI50 (CAKI-1 renal): 14.4 µM | TGI (CAKI-1 renal): 38.5 µM | GI50 (M14 melanoma): 13.6 µM | TGI (M14 melanoma): 26.7 µM

Cc1ccc(C2CC(c3cccc(Nc4ccncc4)c3)=NN2c2ccc(Cl)cc2)cc1 (stereo not given)
GI50 (SNB-75 CNS): 1.36 µM | TGI (SNB-75 CNS): 2.87 µM | GI50 (SW-620 colon): 1.55 µM | TGI (SW-620 colon): 3.04 µM | GI50 (A498 renal): 1.38 µM | TGI (A498 renal): 2.7 µM | GI50 (NCI-H226 lung): 1.87 µM | TGI (NCI-H226 lung): 3.76 µM | GI50 (PC-3 prostate): 1.59 µM | TGI (PC-3 prostate): 3.08 µM | GI50 (BT-549 breast): 1.81 µM | TGI (BT-549 breast): 3.4 µM | GI50 (CAKI-1 renal): 1.51 µM | TGI (CAKI-1 renal): 2.97 µM | GI50 (M14 melanoma): 1.73 µM | TGI (M14 melanoma): 3.39 µM

O=C1C=CC(=O)N1CCCCCCCCCCN1C(=O)C=CC1=O
GI50 (SNB-75 CNS): 11.5 µM | TGI (SNB-75 CNS): 24.4 µM | GI50 (SW-620 colon): 2.42 µM | TGI (SW-620 colon): 6.09 µM | GI50 (A498 renal): 20 µM | TGI (A498 renal): 49.7 µM | GI50 (SF-268 CNS): 15.8 µM | TGI (SF-268 CNS): 30.4 µM | GI50 (RPMI-8226 leukemia): 6.72 µM | TGI (RPMI-8226 leukemia): 57.7 µM | GI50 (NCI-H226 lung): 17.1 µM | TGI (NCI-H226 lung): 34.4 µM | GI50 (PC-3 prostate): 18.1 µM | TGI (PC-3 prostate): 36.5 µM | GI50 (CAKI-1 renal): 9.19 µM | TGI (CAKI-1 renal): 25.2 µM | GI50 (M14 melanoma): 6.9 µM | TGI (M14 melanoma): 20 µM

O=C1[C@H](c2ccccc2)C2c3ccccc3CCN12 (stereo not given in full)
TGI (SNB-75 CNS): > 100 µM | GI50 (SW-620 colon): > 100 µM | TGI (SW-620 colon): > 100 µM | GI50 (A498 renal): > 100 µM | TGI (A498 renal): > 100 µM | GI50 (SF-268 CNS): > 100 µM | TGI (SF-268 CNS): > 100 µM | GI50 (RPMI-8226 leukemia): > 100 µM | TGI (RPMI-8226 leukemia): > 100 µM | GI50 (NCI-H226 lung): > 100 µM | TGI (NCI-H226 lung): > 100 µM | GI50 (PC-3 prostate): > 100 µM | TGI (PC-3 prostate): > 100 µM | GI50 (CAKI-1 renal): > 100 µM | TGI (CAKI-1 renal): > 100 µM | GI50 (M14 melanoma): > 100 µM | TGI (M14 melanoma): > 100 µM

COC(=O)c1cc(O)ccc1NC(=O)c1ccc(O)cc1
TGI (SNB-75 CNS): > 100 µM | TGI (SW-620 colon): > 100 µM | TGI (SF-268 CNS): > 100 µM | TGI (RPMI-8226 leukemia): > 100 µM | TGI (NCI-H226 lung): > 100 µM | TGI (CAKI-1 renal): > 100 µM | TGI (M14 melanoma): > 100 µM

O=C(Cc1nc2ccccc2s1)NC12CC3CC(CC(C3)C1)C2
TGI (SNB-75 CNS): > 100 µM | TGI (SW-620 colon): > 100 µM | TGI (A498 renal): > 100 µM | TGI (SF-268 CNS): > 100 µM | TGI (NCI-H226 lung): > 100 µM | TGI (CAKI-1 renal): > 100 µM | TGI (M14 melanoma): > 100 µM

Cc1ccccc1C(C#N)/C(=N/NC(=O)C(=O)NN)C(=O)Nc1cccc(C(F)(F)F)c1 (stereo not given)
TGI (SNB-75 CNS): > 100 µM | TGI (SW-620 colon): > 100 µM | TGI (A498 renal): > 100 µM | TGI (SF-268 CNS): > 100 µM | TGI (RPMI-8226 leukemia): > 100 µM | TGI (NCI-H226 lung): > 100 µM | TGI (CAKI-1 renal): > 100 µM | TGI (M14 melanoma): > 100 µM

O=CN/C=C/c1ccccc1O
TGI (SNB-75 CNS): > 100 µM | TGI (SW-620 colon): > 100 µM | TGI (A498 renal): > 100 µM | TGI (SF-268 CNS): > 100 µM | TGI (RPMI-8226 leukemia): > 100 µM | TGI (NCI-H226 lung): > 100 µM | TGI (CAKI-1 renal): > 100 µM | TGI (M14 melanoma): > 100 µM

CCC1=C[C@H]2CN(CCc3c([nH]c4ccccc34)[C@@](C(=O)OC)(c3cc4c(cc3OC)N(C)[C@H]3[C@@](O)(C(=O)OC)[C@H](OC(C)=O)[C@]5(CC)[C@@H]6C[C@@H]6CN6CC[C@]43[C@@H]65)C2)C1
GI50 (SNB-75 CNS): 0.595 µM | TGI (SNB-75 CNS): > 25 µM | GI50 (SW-620 colon): 0.0428 µM | TGI (SW-620 colon): 3.89 µM | GI50 (A498 renal): 0.035 µM | TGI (A498 renal): 0.183 µM | GI50 (SF-268 CNS): 0.124 µM | TGI (SF-268 CNS): 4.04 µM | GI50 (NCI-H226 lung): 2.65 µM | TGI (NCI-H226 lung): 10.3 µM | GI50 (PC-3 prostate): 0.0178 µM | TGI (PC-3 prostate): 4.24 µM | GI50 (BT-549 breast): 0.106 µM | TGI (BT-549 breast): 4.29 µM | GI50 (M14 melanoma): 0.0264 µM | TGI (M14 melanoma): 0.156 µM

N=C(N)c1ccc(-c2ccc(-c3ccco3)o2)cc1F
GI50 (SNB-75 CNS): 1.66 µM | TGI (SNB-75 CNS): 7.23 µM | GI50 (SW-620 colon): 1.72 µM | TGI (SW-620 colon): 3.7 µM | GI50 (A498 renal): 1.36 µM | TGI (A498 renal): 4.83 µM | GI50 (SF-268 CNS): 2.9 µM | TGI (SF-268 CNS): 10.4 µM | GI50 (RPMI-8226 leukemia): 1.95 µM | TGI (RPMI-8226 leukemia): 4.68 µM | GI50 (NCI-H226 lung): 2.61 µM | TGI (NCI-H226 lung): 13.6 µM | GI50 (BT-549 breast): 2.19 µM | TGI (BT-549 breast): 5.11 µM | GI50 (CAKI-1 renal): 1.78 µM | TGI (CAKI-1 renal): 4.64 µM | GI50 (M14 melanoma): 1.88 µM | TGI (M14 melanoma): 3.76 µM

CCOCC[P+](c1ccccc1)(c1ccccc1)c1ccccc1
GI50 (SNB-75 CNS): 10.8 µM | TGI (SNB-75 CNS): 53.4 µM | GI50 (SW-620 colon): 25.2 µM | TGI (SW-620 colon): > 100 µM | GI50 (A498 renal): 17.6 µM | TGI (A498 renal): 64.2 µM | GI50 (SF-268 CNS): 27.3 µM | TGI (SF-268 CNS): > 100 µM | GI50 (RPMI-8226 leukemia): 4.55 µM | TGI (RPMI-8226 leukemia): 40.4 µM | GI50 (NCI-H226 lung): 17.8 µM | TGI (NCI-H226 lung): > 100 µM | GI50 (PC-3 prostate): 10.8 µM | TGI (PC-3 prostate): 72.9 µM | GI50 (CAKI-1 renal): 44.1 µM | TGI (CAKI-1 renal): > 100 µM | GI50 (M14 melanoma): 26.5 µM | TGI (M14 melanoma): > 100 µM

N#Cc1ccccc1/C=N/O
TGI (SNB-75 CNS): > 100 µM | TGI (SW-620 colon): > 51.8 µM | TGI (A498 renal): > 100 µM | TGI (SF-268 CNS): > 100 µM | TGI (RPMI-8226 leukemia): > 66.7 µM | TGI (NCI-H226 lung): > 100 µM | TGI (CAKI-1 renal): > 100 µM | TGI (M14 melanoma): > 100 µM

O=C1CSc2ccncc2N1
TGI (SNB-75 CNS): > 100 µM | TGI (SW-620 colon): > 100 µM | TGI (A498 renal): > 100 µM | TGI (SF-268 CNS): > 100 µM | TGI (NCI-H226 lung): > 100 µM | TGI (CAKI-1 renal): > 100 µM | TGI (M14 melanoma): > 100 µM

COc1cc([C@@H]2c3cc4c(cc3[C@@H](NC(=O)c3ccc([N+](=O)[O-])cc3)C3COC(=O)[C@@H]32)OCO4)cc(OC)c1O (stereo not given in full)
TGI (SNB-75 CNS): 4.86 µM | TGI (SW-620 colon): 4.21 µM | TGI (A498 renal): 3.9 µM | TGI (SF-268 CNS): 5.77 µM | TGI (RPMI-8226 leukemia): 3.62 µM | TGI (NCI-H226 lung): 1.82 µM | TGI (CAKI-1 renal): 8.42 µM | TGI (M14 melanoma): > 100 µM

Cn1c(C2CC(C)(C)c3c2c2ccccc2n3C)cc2ccccc21 (stereo not given)
TGI (SW-620 colon): > 304 µM | TGI (SF-268 CNS): > 304 µM | TGI (RPMI-8226 leukemia): > 304 µM | TGI (NCI-H226 lung): > 304 µM | TGI (CAKI-1 renal): > 304 µM

C=C1CCC2C(C)(CO)C(O)CCC2(C)C1CC(O)C1=CCOC1=O (stereo not given)
TGI (SNB-75 CNS): > 100 µM | TGI (SW-620 colon): 51.3 µM | TGI (A498 renal): > 100 µM | TGI (SF-268 CNS): > 100 µM | TGI (RPMI-8226 leukemia): > 100 µM | TGI (NCI-H226 lung): > 100 µM | TGI (CAKI-1 renal): > 100 µM | TGI (M14 melanoma): > 100 µM
